Assay results from patent publication US7485259B2, “Organic compound and metal ion synergistic disinfection and purification system and method of manufacture” (priority 2003, dated 2009).

How the values were obtained:
[1] = tested on: MS2; settings: in 12 hours; cited from earlier work
[2] = tested on: Klebsiella terrigena; experiment: Disinfection of seeded test waters, log reduction of Klebsiella; settings: seeded municipal water
[3] = after 60 days; cited from earlier work
[4] = tested on: L. pneumophila serogroup 1; settings: ion used alone; cited from earlier work
[5] = tested on: poliovirus; settings: in 12 hours; cited from earlier work
[6] = tested on: MS2 bacteriophage; experiment: Disinfection of seeded test waters, log reduction of MS2 virus; settings: contact up to 24 hours

Compound	log inactivation of MS2 [1]	log reduction of Klebsiella ([2]; 60 minute contact time)	log reduction of Klebsiella ([2]; 240 minutes contact time)	share of initial input detectable in the test chambers [3]	contact time to achieve complete (6 log) inactivation of Legionella [4]	log inactivation of poliovirus [5]	reduction of MS2 virus ([6]; seeded municipal water)	reduction of MS2 virus ([6]; seeded untreated natural waters)
[Cu+2] [copper ions]	4.0 log	less than 3 log	less than 5 log	75%	2.5 hours	1.3 log		
silver ions		5 log		44%	24 hours		No effective reduction	No effective reduction
